Measurements from US10196369B2, “Spirocyclic EBI2 modulators” (Sanford Burnham Prebys Medical Discovery Institute, priority 2013, dated 2019).

These molecules were tested against EBI2 (Homo sapiens, UniProt P32249) (assay: Cell-based luminescent assay of EBI2 modulation (7a,25-OHC stimulated)). Conditions: 7a,25-OHC final assay concentration 80 nM, 60 minute incubation.
Protocol: To assess EBI2 modulation, the compounds described herein were assayed in the following cell-based luminescent assay:
1) Plated 600 cells/well in 4 μL of assay media into columns 1-48 of a 1536-well assay plate, using a liquid dispenser.
2) Centrifuged plates at 1000 rpm for 1 minute and covered with lids.
3) Incubated overnight at 37° C., 100% relative humidity, 5% CO2.
1) Centrifuged compound plates containing compounds described herein at 500 rpm for 1 minute.
2) Added compounds into assay plate col 5-48 to final concentration 4-5 uM. Added matching amount of DMSO to positive and negative control wells in columns 1-4.
3) Dispensed 2 uL/well of assay media to columns 1-2 for the positive control wells.
4) Added 2 uL/well of 400 nM 7a,25-OHC (final assay concentration=80 nM) in assay media to columns 3-48 for the negative control and test compound wells.
5) Centrifuged plates at 1000 rpm for 1 minute and re-lid plates.
6) Incubated plates at 37° C., 100% relative humidity, 5% CO2 for 60 minutes.
7) Following 60 minute incubation, delivered 2.5 uL of Detection Reagent solution to each assay plate (Columns 1-48) using a liquid handler.
8) Centrifuged plates at 2000 rpm for 2 minutes and re-lid plates.
9) Incubated plates for 60 minutes at 25 degrees in the dark.
10) Read plates using the Viewlux, Envision or other suitable plate reader using a luminescence detection.
The experimental values were normalized by the difference between values from neutral and stimulator control wells in each plate. Then normalized data was corrected to remove systematic plate patterns due to artifacts such as dispensing tip issues etc.

Sequence of EBI2 (P32249 whole entry): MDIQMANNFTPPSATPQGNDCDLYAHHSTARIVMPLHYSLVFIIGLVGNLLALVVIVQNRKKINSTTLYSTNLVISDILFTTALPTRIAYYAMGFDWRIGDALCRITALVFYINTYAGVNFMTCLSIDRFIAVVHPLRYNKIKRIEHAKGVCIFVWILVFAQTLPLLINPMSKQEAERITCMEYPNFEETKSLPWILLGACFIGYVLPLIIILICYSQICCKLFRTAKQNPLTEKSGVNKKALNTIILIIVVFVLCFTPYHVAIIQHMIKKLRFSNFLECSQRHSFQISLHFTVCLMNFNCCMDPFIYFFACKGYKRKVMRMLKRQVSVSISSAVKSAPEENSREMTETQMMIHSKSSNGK

Compound	IC50 [nM]
O=C(C#Cc1ccc(Cl)cc1)N1CC2(CCN(C(=O)c3ccc(F)cc3)CC2)C1 [Compound C3, 3-(4-chlorophenyl)-1-{7-[(4-fluorophenyl)carbonyl]-2,7-diazaspiro[3.5]non-2-yl}prop-2-yn-1-one]	100 to 500
O=C(c1ccc(C(F)(F)F)c(F)c1)N1CC2(CCN(C(=O)c3cc4cc(Cl)ccc4[nH]3)CC2)C1 [Compound C13, 5-chloroindol-2-yl 2-{[3-fluoro-4-(trifluoromethyl)phenyl]carbonyl}-2,7-diazaspiro[3.5]non-7-yl ketone]	100 to 500
O=C(c1cc2cc(Cl)ccc2[nH]1)N1CCC2(CC1)CN(Cc1ccc(C(F)(F)F)c(F)c1)C2 [Compound C14, 5-chloroindol-2-yl 2-{[3-fluoro-4-(trifluoromethyl)phenyl]methyl}-2,7-diazaspiro[3.5]non-7-yl ketone]	100 to 500
O=C(c1cc2cc(Cl)ccc2[nH]1)N1CCC2(CC1)CN(Cc1ccc(C(F)(F)F)cc1)C2 [Compound C15, 5-chloroindol-2-yl 2-{[4-(trifluoromethyl)phenyl]methyl}-2,7-diazaspiro[3.5]non-7-yl ketone]	100 to 500
O=C(c1ccc(-c2nnn[nH]2)cc1)N1CC2(CCN(C(=O)c3cc4cc(Cl)ccc4[nH]3)CC2)C1 [Compound C16, 5-chloroindol-2-yl 2-[(4-(1H-1,2,3,4-tetraazol-5-yl)phenyl)carbonyl]-2,7-diazaspiro[3.5]non-7-yl ketone]	500 to 5000
O=C(/C=C/c1ccc(Br)cc1)N1CC2(CCN(C(=O)c3ccc(F)cc3)CC2)C1 [Compound C20, (2E)-3-(4-bromophenyl)-1-{7-[(4-fluorophenyl)carbonyl]-2,7-diazaspiro[3.5]non-2-yl}prop-2-en-1-one]	< 100
O=C(/C=C/c1ccc(Br)cc1)N1CC2(CCN(C(=O)c3ccc(C(F)(F)F)cc3)CC2)C1 [Compound C21, (2E)-3-(4-bromophenyl)-1-(7-{[4-(trifluoromethyl)phenyl]carbonyl}-2,7-diazaspiro[3.5]non-2-yl)prop-2-en-1-one]	< 100
O=C(/C=C/c1ccc(Br)cc1)N1CC2(CCN(C(=O)c3ccc(F)c(C(F)(F)F)c3)CC2)C1 [Compound C22, (2E)-3-(4-bromophenyl)-1-(7-{[4-fluoro-3-(trifluoromethyl)phenyl]carbonyl}-2,7-diazaspiro[3.5]non-2-yl)prop-2-en-1-one]	< 100
O=C(/C=C/c1ccc(Br)cc1)N1CC2(CCN(C(=O)c3ccc(-c4nnn[nH]4)cc3)CC2)C1 [Compound C23, (2E)-3-(4-bromophenyl)-1-{7-[(4-(1H-1,2,3,4-tetraazol-5-yl)phenyl)carbonyl]-2,7-diazaspiro[3.5]non-2-yl}prop-2-en-1-one]	100 to 500
O=C(/C=C/c1ccc(Br)cc1)N1CC2(CCN(Cc3cc(C(F)(F)F)cc(C(F)(F)F)c3)CC2)C1 [Compound C24, (2E)-1-(7-{[3,5-bis(trifluoromethyl)phenyl]methyl}-2,7-diazaspiro[3.5]non-2-yl)-3-(4-bromophenyl)prop-2-en-1-one]	100 to 500
O=C(/C=C/c1ccc(Br)cc1)N1CC2(CCN(Cc3ccc(F)cc3)CC2)C1 [Compound C25, (2E)-3-(4-bromophenyl)-1-{7-[(4-fluorophenyl)methyl]-2,7-diazaspiro[3.5]non-2-yl}prop-2-en-1-one]	100 to 500
O=C(/C=C/c1ccc(Br)cc1)N1CC2(CCN(Cc3ccc(Cl)cc3)CC2)C1 [Compound C26, (2E)-3-(4-bromophenyl)-1-{7-[(4-chlorophenyl)methyl]-2,7-diazaspiro[3.5]non-2-yl}prop-2-en-1-one]	100 to 500
O=C(/C=C/c1ccc(Br)cc1)N1CC2(CCN(Cc3ccc(F)c(C(F)(F)F)c3)CC2)C1 [Compound C27, (2E)-3-(4-bromophenyl)-1-(7-{[4-fluoro-3-(trifluoromethyl)phenyl]methyl}-2,7-diazaspiro[3.5]non-2-yl)prop-2-en-1-one]	100 to 500
O=C(/C=C/c1ccc(Cl)c(Cl)c1)N1CC2(CCN(C(=O)c3ccc(F)cc3)CC2)C1 [Compound C28, (2E)-3-(3,4-dichlorophenyl)-1-{7-[(4-fluorophenyl)carbonyl]-2,7-diazaspiro[3.5]non-2-yl}prop-2-en-1-one]	< 100
O=C(/C=C/c1ccc(Cl)c(Cl)c1)N1CC2(CCN(C(=O)c3ccc(Cl)cc3)CC2)C1 [Compound C29, (2E)-3-(3,4-dichlorophenyl)-1-{7-[(4-chlorophenyl)carbonyl]-2,7-diazaspiro[3.5]non-2-yl}prop-2-en-1-one]	< 100
O=C(/C=C/c1ccc(Cl)c(Cl)c1)N1CC2(CCN(C(=O)c3ccc(C(F)(F)F)cc3)CC2)C1 [Compound C30, (2E)-3-(3,4-dichlorophenyl)-1-(7-{[4-(trifluoromethyl)phenyl]carbonyl}-2,7-diazaspiro[3.5]non-2-yl)prop-2-en-1-one]	< 100
O=C(/C=C/c1ccc(Cl)c(Cl)c1)N1CC2(CCN(C(=O)c3ccc(-c4nnn[nH]4)cc3)CC2)C1 [Compound C31, (2E)-3-(3,4-dichlorophenyl)-1-{7-[(4-(1H-1,2,3,4-tetraazol-5-yl)phenyl)carbonyl]-2,7-diazaspiro[3.5]non-2-yl}prop-2-en-1-one]	500 to 5000

Now from value to molecule:

IC50 [nM]	Compound
< 100	O=C(/C=C/c1ccc(Br)cc1)N1CCC2(CC1)CN(C(=O)/C=C/c1ccc(Br)cc1)C2 [Compound C1, (2E)-1-{7-[(2E)-3-(4-bromophenyl)prop-2-enoyl]-2,7-diazaspiro[3.5]non-2-yl}-3-(4-bromophenyl)prop-2-en-1-one]
< 100	O=C(/C=C/c1ccc(Br)cc1)N1CC2(CCN(C(=O)c3cccc(Br)c3)CC2)C1 [Compound C2, (2E)-3-(4-bromophenyl)-1-{7-[(3-bromophenyl)carbonyl]-2,7-diazaspiro[3.5]non-2-yl}prop-2-en-1-one]
< 100	O=C(c1cc2cc(Cl)ccc2[nH]1)N1CCC2(CC1)CN(Cc1cccc(F)c1)C2 [Compound C4, 5-chloroindol-2-yl 2-[(3-fluorophenyl)methyl]-2,7-diazaspiro[3.5]non-7-yl ketone]
< 100	O=C(c1ccc(F)cc1)N1CC2(CCN(C(=O)c3cc4cc(Cl)ccc4[nH]3)CC2)C1 [Compound C5, 5-chloroindol-2-yl 2-[(4-fluorophenyl)carbonyl]-2,7-diazaspiro[3.5]non-7-yl ketone]
< 100	O=C(/C=C/c1ccc(Br)cc1)N1CCC2(CC1)CN(Cc1ccc(Cl)cc1)C2 [Compound C6, (2E)-3-(4-bromophenyl)-1-{2-[(4-chlorophenyl)methyl]-2,7-diazaspiro[3.5]non-7-yl}prop-2-en-1-one]
< 100	O=C(/C=C/c1ccc(Br)cc1)N1CCC2(CC1)CN(C(=O)c1ccccc1)C2 [Compound C7, (2E)-3-(4-bromophenyl)-1-[2-(phenylcarbonyl)-2,7-diazaspiro[3.5]non-7-yl]prop-2-en-1-one]
< 100	O=C(/C=C/c1ccc(Br)cc1)N1CCC2(CC1)CN(Cc1ccc(F)cc1)C2 [Compound C8, (2E)-3-(4-bromophenyl)-1-{2-[(4-fluorophenyl)methyl]-2,7-diazaspiro[3.5]non-7-yl}prop-2-en-1-one]
< 100	COc1ccc(C(=O)N2CC3(CCN(C(=O)/C=C/c4ccc(Br)cc4)CC3)C2)cc1OC [Compound C9, (2E)-1-{2-[(3,4-dimethoxyphenyl)carbonyl]-2,7-diazaspiro[3.5]non-7-yl}-3-(4-bromophenyl)prop-2-en-1-one]
< 100	O=C(/C=C/c1ccc(Br)cc1)N1CCC2(CC1)CN(C(=O)c1cc(Cl)cc(Cl)c1)C2 [Compound C10, (2E)-1-{2-[(3,5-dichlorophenyl)carbonyl]-2,7-diazaspiro[3.5]non-7-yl}-3-(4-bromophenyl)prop-2-en-1-one]
< 100	O=C(/C=C/c1ccc(Br)cc1)N1CCC2(CC1)CN(Cc1c(Cl)cccc1Cl)C2 [Compound C11, (2E)-1-{2-[(2,6-dichlorophenyl)methyl]-2,7-diazaspiro[3.5]non-7-yl}-3-(4-bromophenyl)prop-2-en-1-one]
< 100	Cc1cccc(C(=O)N2CC3(CCN(C(=O)/C=C/c4ccc(Br)cc4)CC3)C2)c1 [Compound C12, (2E)-3-(4-bromophenyl)-1-{2-[(3-methylphenyl)carbonyl]-2,7-diazaspiro[3.5]non-7-yl}prop-2-en-1-one]
< 100	O=C(c1cc2cc(Cl)ccc2[nH]1)N1CCC2(CC1)CN(Cc1ccc(F)cc1)C2 [Compound C17, 5-chloroindol-2-yl 2-[(4-fluorophenyl)methyl]-2,7-diazaspiro[3.5]non-7-yl ketone]
< 100	O=C(c1ccc(C(F)(F)F)c(F)c1)N1CCC2(CC1)CN(C(=O)c1cc3cc(Cl)ccc3[nH]1)C2 [Compound C18, 5-chloroindol-2-yl 7-{[3-fluoro-4-(trifluoromethyl)phenyl]carbonyl}-2,7-diazaspiro[3.5]non-2-yl ketone]
< 100	O=C(/C=C/c1ccc(Br)cc1)N1CC2(CCN(C(=O)c3ccc(Cl)cc3)CC2)C1 [Compound C19, (2E)-3-(4-bromophenyl)-1-{7-[(4-chlorophenyl)carbonyl]-2,7-diazaspiro[3.5]non-2-yl}prop-2-en-1-one]
